Assay results: patent US20240239794A1, “PKC-Theta Modulators” (Exscientia AI Limited, priority 2021, published 2024)
Counter-ions that a name gives are not always drawn. Like-named read-outs stand apart in the source and are kept apart here.

Legend:
[1] = target: Recombinant human PKC-theta (His-tagged 362-706) (Homo sapiens (Human), UniProt Q04759); experiment: PKC-theta inhibition assay (HTRF KinEASE kit); type: biochemical; details: ATP 6.5 μM; for IC50: binned A to H, read-out: PKC-theta HTRF pIC50 (binned) (converted)
Recombinant human PKC-theta (His-tagged 362-706), sequence (Q04759 362-706): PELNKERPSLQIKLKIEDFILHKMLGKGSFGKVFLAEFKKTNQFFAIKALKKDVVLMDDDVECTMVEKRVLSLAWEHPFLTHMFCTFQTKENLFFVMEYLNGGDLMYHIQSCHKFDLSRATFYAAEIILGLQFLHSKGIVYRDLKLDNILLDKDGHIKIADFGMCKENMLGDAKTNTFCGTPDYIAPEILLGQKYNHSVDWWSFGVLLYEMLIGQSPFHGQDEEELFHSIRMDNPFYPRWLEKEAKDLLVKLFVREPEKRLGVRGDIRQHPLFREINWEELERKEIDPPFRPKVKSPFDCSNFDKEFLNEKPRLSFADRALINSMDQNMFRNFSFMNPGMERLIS
In short: (§1)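 HTRF KinEASE kinase assay, buffer supplemented with 10 mM MgCl2, 1 mM DTT, 0.1% Tween 20; enzyme at 10 ng/ml preincubated 30 min on ice with compound. PKC-theta: 525 nM STK substrate, 6.5 μM ATP, 30 min at 25° C; PKC-delta: 243 nM substrate, 5.7 μM ATP, 20 min. IC50 from 4-parameter fit of 10-dose series.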

[2] = test system: IL-2 secretion by human effector memory T cells (TEM); experiment: Effector memory T cells IL-2 release assay; type: cell-based; details: T-cell, 24 h
In short: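 Human CD4+ effector memory T cells (negatively sorted from donor PBMC), 5,000 per well, stimulated with CD3/CD28 beads and 10 semi-log compound doses for 24 h at 37° C, 0.1% DMSO. Supernatant IL-2 measured by HTRF; IC50 from 4-parameter logistic fit; viability checked by flow cytometry.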

[3] = target: Recombinant human PKC-delta (His-tagged 345-676) (Homo sapiens (Human), UniProt Q05655); experiment: PKC-delta inhibition assay (HTRF KinEASE kit), PKC-theta/PKC-delta selectivity; type: biochemical; details: ratio; for PKC-theta/PKC-delta selectivity: PKC-theta over PKC-delta, HTRF assays; for PKC-theta/PKC-delta selectivity (binned): binned A to G
Recombinant human PKC-delta (His-tagged 345-676), sequence (Q05655 345-676): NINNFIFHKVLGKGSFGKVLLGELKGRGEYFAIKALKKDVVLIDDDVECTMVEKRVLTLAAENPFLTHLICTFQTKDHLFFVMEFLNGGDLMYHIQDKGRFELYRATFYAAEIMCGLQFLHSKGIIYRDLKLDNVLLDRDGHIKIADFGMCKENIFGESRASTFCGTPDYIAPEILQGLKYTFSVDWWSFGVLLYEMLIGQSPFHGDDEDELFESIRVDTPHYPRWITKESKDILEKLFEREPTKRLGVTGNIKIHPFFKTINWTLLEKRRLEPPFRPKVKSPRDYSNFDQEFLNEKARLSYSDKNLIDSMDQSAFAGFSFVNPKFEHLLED
In short: as §1

[4] = human CD4+ TEM cells, CD3/CD28 bead stimulation, binned A to G, read-out: PKC-theta IL2 pIC50 (binned) (converted)
[5] = human CD4+ TEM cells, CD3/CD28 bead stimulation, read-out: PKC-theta IL2 pIC50 (converted)

PKC-theta HTRF pIC50 [1]	IC50 [1] [nM]	IC50 [2, 4] [nM]	IC50 [2, 5] [nM]	PKC-theta/PKC-delta selectivity [3]	PKC-theta/PKC-delta selectivity (binned) [3]	Structure (SMILES)	IC50 ([2]; Homo sapiens, read-out: PKC-theta IL2 pIC50 (binned) (converted)) [nM]	IC50 ([2]; Homo sapiens, read-out: PKC-theta IL2 pIC50 (converted)) [nM]
8.6	1 to 3.16	10 to 31.6	25.1	19	D (D means a ratio of between 10 and 20)	CC1(C)C(=O)Nc2nccc(-c3nn([C@@H]4CCNC[C@@H]4F)c4ccccc34)c21 [Example 37]		
8.9	1 to 3.16	10 to 31.6	20	16	D (D means a ratio of between 10 and 20)	CC1(C)C(=O)Nc2nccc(-c3nn(CC4(F)CCNCC4)c4ccccc34)c21 [Example 38]		
9.7	≤ 1	3.16 to 10	10	10	E (E means a ratio of between 5 and 10)	CC1(O)C(=O)Nc2nccc(-c3nn([C@@H]4CC[C@@H](N)[C@H](F)C4)c4ccccc34)c21 (stereo partly drawn) [Example 39]		
9.4	≤ 1	10 to 31.6	15.8	14	D (D means a ratio of between 10 and 20)	CC1(C)C(=O)Nc2nccc(-c3nn([C@H]4CC[C@H](N)CC4)c4ccccc34)c21 [Example 41]		
7.5	31.6 to 100	100 to 316	251	14	D (D means a ratio of between 10 and 20)	CC1(C)C(=O)Nc2nccc(-c3nn(CC4(F)CCCNC4)c4ccccc34)c21 (stereo not drawn) [Example 44]		
7.4	31.6 to 100	> 1000	1000	15	D (D means a ratio of between 10 and 20)	CC1(C)C(=O)Nc2nccc(-c3nn(C4(CC#N)COC4)c4ccccc34)c21 [Example 45]		
8.2	3.16 to 10	100 to 316	158	3	F (F means a ratio of between 1 and 5)	CC1(C)C(=O)Nc2nccc(-c3nn(C4(CC#N)CNC4)c4ccccc34)c21 [Example 46]		
9.3	≤ 1	10 to 31.6	15.8	11	D (D means a ratio of between 10 and 20)	CCC1(O)C(=O)Nc2nccc(-c3nn(C4(CC#N)CCC4)c4ccccc34)c21 (stereo not drawn) [Example 51]		
8.4	3.16 to 10	31.6 to 100	39.8	8	E (E means a ratio of between 5 and 10)	CCC1(C)C(=O)Nc2nccc(-c3nn([C@@H]4CCNC[C@@H]4F)c4ccccc34)c21 (stereo partly drawn) [Example 52]		
8.3	3.16 to 10	31.6 to 100	100	13	D (D means a ratio of between 10 and 20)	CCC1(C)C(=O)Nc2nccc(-c3nn([C@H]4CCNC4)c4ccccc34)c21 (stereo partly drawn) [Example 53]		
8.6	1 to 3.16	31.6 to 100	79.4	22	C (C means a ratio of between 20 and 30)	CC1(Cn2nc(-c3ccnc4c3C(C)(C)C(=O)N4)c3ccccc32)COCCN1 (stereo not drawn) [Example 54, 3,3-dimethyl-4-[1-[(3-methylmorpholin-3-yl)methyl]indazol-3-yl]-1H-pyrrolo[2,3-b]pyridin-2-one]		
8.7	1 to 3.16	31.6 to 100	50.1	15	D (D means a ratio of between 10 and 20)	CCC1(O)C(=O)Nc2nccc(-c3nn([C@@H]4CCNC[C@@H]4F)c4ccccc34)c21 (stereo partly drawn) [Example 56]		
8.9	1 to 3.16	31.6 to 100	50.1	14	D (D means a ratio of between 10 and 20)	COC1(C)C(=O)Nc2nccc(-c3nn(C4(CC#N)CCC4)c4ccccc34)c21 (stereo not drawn) [Example 57]		
8.7	1 to 3.16	31.6 to 100	50.1	16	D (D means a ratio of between 10 and 20)	COC1(C)C(=O)Nc2nccc(-c3nn([C@@H]4CCNC[C@@H]4F)c4ccccc34)c21 (stereo partly drawn) [Example 61]		
9.5	≤ 1	1 to 3.16	1.58	3	F (F means a ratio of between 1 and 5)	CNC1(C)C(=O)Nc2nccc(-c3nn(C4(CC#N)CCC4)c4ccccc34)c21 (stereo not drawn) [Example 62]		
7.5	10 to 31.6	> 1000	1260	17	D (D means a ratio of between 10 and 20)	CN1CCOCC1(C)Cn1nc(-c2ccnc3c2C(C)(C)C(=O)N3)c2ccccc21 (stereo not drawn) [Example 63]		
7.5	31.6 to 100	316 to 1000	398	9	E (E means a ratio of between 5 and 10)	COC1(C)C(=O)Nc2nccc(-c3nn(CC4(F)CCCNC4)c4ccccc34)c21 (stereo not drawn) [Example 67]		
8.1	3.16 to 10	100 to 316	126	20	C (C means a ratio of between 20 and 30)	CC1(C)C(=O)Nc2nccc(-c3nn([C@H]4CCNC4)c4cc(F)ccc34)c21 [Example 70]		
8.1	3.16 to 10	100 to 316	126	22	C (C means a ratio of between 20 and 30)	CC1(C)C(=O)Nc2nccc(-c3nn([C@H]4CCNC4)c4cc(Cl)ccc34)c21 [Example 71]		
7.9	10 to 31.6	100 to 316	200	20	D (D means a ratio of between 10 and 20)	CC1(C)C(=O)Nc2nccc(-c3nn([C@H]4CCNC4)c4c(F)cccc34)c21 [Example 72]		
7.5	10 to 31.6	316 to 1000	631	10	D (D means a ratio of between 10 and 20)	CC1(C)C(=O)Nc2nccc(-c3nn([C@H]4CCNC4)c4ccc(F)cc34)c21 [Example 73]		
6.5	100 to 316	316 to 1000	631	33	B (B means a ratio of between 30 and 50)	CC1(C)C(=O)Nc2nccc(-c3nn([C@H]4CCNC4)c4cc(C(F)(F)F)ccc34)c21 [Example 74]		
9.0	≤ 1	10 to 31.6	12.6	11	D (D means a ratio of between 10 and 20)	CC1(C)C(=O)Nc2nccc(-c3nn(C4(CF)CCNC4)c4ccccc34)c21 (stereo not drawn) [Example 77]		
7.5	10 to 31.6	> 1000	1260	26	C (C means a ratio of between 20 and 30)	CC1(C)C(=O)Nc2nccc(-c3nn(C[C@H]4COCCN4)c4ccccc34)c21 [Example 86]		
9.0	≤ 1	31.6 to 100	50.1	38	B (B means a ratio of between 30 and 50)	CC1(C)C(=O)Nc2nccc(-c3nn(C[C@@]4(C)COCCN4)c4cc(F)ccc34)c21 [Example 87]		
8.7	1 to 3.16	10 to 31.6	25.1	17	D (D means a ratio of between 10 and 20)	CC1(C)C(=O)Nc2nccc(-c3nn(CC4(F)CCNC4)c4ccccc34)c21 (stereo not drawn) [Example 96]		

Structure (SMILES)	PKC-theta HTRF pIC50 [1]	IC50 [1] [nM]	IC50 [2, 4] [nM]	IC50 [2, 5] [nM]	PKC-theta/PKC-delta selectivity [3]	PKC-theta/PKC-delta selectivity (binned) [3]	IC50 ([2]; Homo sapiens, read-out: PKC-theta IL2 pIC50 (binned) (converted)) [nM]	IC50 ([2]; Homo sapiens, read-out: PKC-theta IL2 pIC50 (converted)) [nM]
O=C1Nc2nccc(-c3nn(C4(CO)CCNC4)c4cc(F)ccc34)c2C12CCCC2 (stereo not drawn) [Example 55, 4-[6-fluoro-1-[3-(hydroxymethyl)pyrrolidin-3-yl]indazol-3-yl]spiro[1H-pyrrolo[2,3-b]pyridine-3,1′-cyclopentane]-2-one dihydrochloride]	8.2	3.16 to 10			4	F (F means a ratio of between 1 and 5)	100 to 316	158
